In assay [1] the target is T1, Cytochrome P450 1A1 (Rattus norvegicus, UniProt P00185).
T1 sequence (P00185 whole entry): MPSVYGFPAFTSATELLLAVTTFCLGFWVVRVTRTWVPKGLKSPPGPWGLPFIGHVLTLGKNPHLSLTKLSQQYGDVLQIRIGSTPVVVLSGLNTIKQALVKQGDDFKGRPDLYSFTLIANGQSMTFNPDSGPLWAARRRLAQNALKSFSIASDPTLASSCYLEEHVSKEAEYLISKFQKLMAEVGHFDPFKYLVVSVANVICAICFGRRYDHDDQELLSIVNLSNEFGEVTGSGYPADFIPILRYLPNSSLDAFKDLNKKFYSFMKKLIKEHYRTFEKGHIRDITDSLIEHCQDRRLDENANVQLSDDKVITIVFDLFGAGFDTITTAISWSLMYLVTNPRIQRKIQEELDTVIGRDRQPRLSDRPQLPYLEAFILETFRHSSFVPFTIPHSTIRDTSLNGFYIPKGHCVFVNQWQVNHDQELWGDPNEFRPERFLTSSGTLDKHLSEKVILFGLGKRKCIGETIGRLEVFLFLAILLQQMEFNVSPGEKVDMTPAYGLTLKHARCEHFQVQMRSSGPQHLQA
The assay is described as follows: Spectral dissociation constant for rat liver Cytochrome P450 1A1. Type of assay: ADME. Conditions: read-out: Ks.

Assay [2] deals with T2, Cytochrome P450 2B1 (Rattus norvegicus, UniProt P00176).
T2 sequence (P00176 whole entry): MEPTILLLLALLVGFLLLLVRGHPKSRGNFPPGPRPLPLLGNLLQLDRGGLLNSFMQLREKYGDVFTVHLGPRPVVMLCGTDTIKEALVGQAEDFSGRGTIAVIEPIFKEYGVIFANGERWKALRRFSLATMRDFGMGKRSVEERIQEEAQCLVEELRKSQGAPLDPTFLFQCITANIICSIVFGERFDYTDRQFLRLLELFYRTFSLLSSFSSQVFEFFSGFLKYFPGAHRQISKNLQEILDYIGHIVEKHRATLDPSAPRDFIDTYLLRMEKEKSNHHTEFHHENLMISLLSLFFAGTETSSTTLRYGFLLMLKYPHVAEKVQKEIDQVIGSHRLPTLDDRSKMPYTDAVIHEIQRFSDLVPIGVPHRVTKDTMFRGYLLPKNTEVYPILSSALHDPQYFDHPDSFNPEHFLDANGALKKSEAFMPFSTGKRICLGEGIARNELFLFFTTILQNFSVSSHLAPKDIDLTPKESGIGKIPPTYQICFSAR
Description: Spectral dissociation constant for rat liver Cytochrome P450 2B1. Conditions: read-out: Ks. In kind it is ADME.

Take `CC(=O)Nc1ccc(O)cc1` [ACETAMINOPHEN]: the figures for the Kd in assay [1] and in assay [2] were 870 µM and 800 µM, respectively.

Values taken from ChEMBL document CHEMBL1127814, “Preferred orientations in the binding of 4'-hydroxyacetanilide (acetaminophen) to cytochrome P450 1A1 and 2B1 isoforms as determined by 13C- and 15N-NMR relaxation studies” (J Med Chem, 1994).
